“Also recorded” adds a separate entry of the source. Where two headings read alike, the source gives them in different places.
What was measured:
Type in all cases: biochemical
[1] = target: T1, Recombinant human PKD3 (Homo sapiens, UniProt O94806); assay: Radiometric PKD kinase assay, 10-point IC50
T1 sequence (O94806 1-890): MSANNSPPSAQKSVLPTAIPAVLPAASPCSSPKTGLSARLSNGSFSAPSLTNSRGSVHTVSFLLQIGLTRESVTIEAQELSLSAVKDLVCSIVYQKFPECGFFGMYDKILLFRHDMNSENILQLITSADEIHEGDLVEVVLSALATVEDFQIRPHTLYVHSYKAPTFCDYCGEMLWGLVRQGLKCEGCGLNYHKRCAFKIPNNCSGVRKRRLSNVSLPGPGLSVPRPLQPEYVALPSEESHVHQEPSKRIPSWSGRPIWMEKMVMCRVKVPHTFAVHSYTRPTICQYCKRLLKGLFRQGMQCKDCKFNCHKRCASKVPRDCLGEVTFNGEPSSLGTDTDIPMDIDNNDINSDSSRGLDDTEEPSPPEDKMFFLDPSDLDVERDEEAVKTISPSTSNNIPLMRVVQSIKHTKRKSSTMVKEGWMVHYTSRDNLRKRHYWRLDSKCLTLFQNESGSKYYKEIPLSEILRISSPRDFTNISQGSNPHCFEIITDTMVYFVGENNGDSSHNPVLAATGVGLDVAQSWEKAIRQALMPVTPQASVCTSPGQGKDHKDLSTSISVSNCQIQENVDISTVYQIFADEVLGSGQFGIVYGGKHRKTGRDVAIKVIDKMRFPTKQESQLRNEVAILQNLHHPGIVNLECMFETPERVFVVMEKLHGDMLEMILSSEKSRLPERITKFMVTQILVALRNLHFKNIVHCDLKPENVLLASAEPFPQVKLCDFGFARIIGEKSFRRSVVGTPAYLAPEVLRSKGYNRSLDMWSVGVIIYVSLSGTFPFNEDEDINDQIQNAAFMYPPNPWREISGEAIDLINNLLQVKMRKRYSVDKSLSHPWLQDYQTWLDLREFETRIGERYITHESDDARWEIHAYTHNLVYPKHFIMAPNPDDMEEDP
Protocol: Recombinant human PKD1, 2, or 3 proteins were incubated in a mixture containing a peptide substrate derived from a PKD substrate, HDAC-5, and 10 different concentrations of the two compounds.
The IC50 values were calculated as the mean ±SEM of at least three independent experiments with triplicate determinations at each concentration of drug in each experiment. The data were plotted as a function of drug concentration and a representative graph is shown.

[2] = target: T2, PKD1 (Homo sapiens, UniProt Q15139); assay: ATP competition, Lineweaver-Burk analysis of PKD1 kinase activity; details: Lineweaver-Burk plots, increasing ATP
T2 construct: GST; purchased Enzo Life sciences (Farmingdale, NY)
T2 sequence (Q15139 1-912): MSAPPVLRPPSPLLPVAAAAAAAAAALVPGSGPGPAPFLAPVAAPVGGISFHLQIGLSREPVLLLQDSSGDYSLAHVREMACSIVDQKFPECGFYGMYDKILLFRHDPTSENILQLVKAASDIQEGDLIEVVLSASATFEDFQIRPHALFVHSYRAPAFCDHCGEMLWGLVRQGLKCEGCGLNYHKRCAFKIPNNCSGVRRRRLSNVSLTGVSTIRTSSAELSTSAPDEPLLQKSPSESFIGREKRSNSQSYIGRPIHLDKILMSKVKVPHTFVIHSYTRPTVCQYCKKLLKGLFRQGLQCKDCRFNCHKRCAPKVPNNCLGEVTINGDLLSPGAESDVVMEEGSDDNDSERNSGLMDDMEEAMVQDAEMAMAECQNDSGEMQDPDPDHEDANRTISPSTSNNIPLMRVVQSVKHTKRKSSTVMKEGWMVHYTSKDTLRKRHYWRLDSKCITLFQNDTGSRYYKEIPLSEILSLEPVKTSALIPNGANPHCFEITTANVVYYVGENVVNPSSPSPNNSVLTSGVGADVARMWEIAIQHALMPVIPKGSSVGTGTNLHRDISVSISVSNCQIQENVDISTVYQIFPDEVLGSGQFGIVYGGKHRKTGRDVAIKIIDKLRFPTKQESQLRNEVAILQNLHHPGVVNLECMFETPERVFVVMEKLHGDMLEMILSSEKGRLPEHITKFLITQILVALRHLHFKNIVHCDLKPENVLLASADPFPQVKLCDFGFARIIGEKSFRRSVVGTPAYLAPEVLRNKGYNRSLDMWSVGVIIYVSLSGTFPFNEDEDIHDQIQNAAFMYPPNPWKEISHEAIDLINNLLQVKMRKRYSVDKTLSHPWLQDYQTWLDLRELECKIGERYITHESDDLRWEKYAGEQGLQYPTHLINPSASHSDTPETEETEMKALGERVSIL
Text: Lineweaver-Burk plots were generated by plotting the reciprocal of reaction velocities (1/v) against the reciprocal of ATP concentrations (1/[ATP]) at different compound concentrations. The points were fitted by linear regression.
Data presented were representative of three independent experiments.

[3] = target: T3, PKCδ (Homo sapiens, UniProt Q05655); assay: In vitro radiometric PKC kinase assay
T3 construct: purchased SignalChem (Richmond, BC, Canada)
T3 sequence (Q05655 whole entry): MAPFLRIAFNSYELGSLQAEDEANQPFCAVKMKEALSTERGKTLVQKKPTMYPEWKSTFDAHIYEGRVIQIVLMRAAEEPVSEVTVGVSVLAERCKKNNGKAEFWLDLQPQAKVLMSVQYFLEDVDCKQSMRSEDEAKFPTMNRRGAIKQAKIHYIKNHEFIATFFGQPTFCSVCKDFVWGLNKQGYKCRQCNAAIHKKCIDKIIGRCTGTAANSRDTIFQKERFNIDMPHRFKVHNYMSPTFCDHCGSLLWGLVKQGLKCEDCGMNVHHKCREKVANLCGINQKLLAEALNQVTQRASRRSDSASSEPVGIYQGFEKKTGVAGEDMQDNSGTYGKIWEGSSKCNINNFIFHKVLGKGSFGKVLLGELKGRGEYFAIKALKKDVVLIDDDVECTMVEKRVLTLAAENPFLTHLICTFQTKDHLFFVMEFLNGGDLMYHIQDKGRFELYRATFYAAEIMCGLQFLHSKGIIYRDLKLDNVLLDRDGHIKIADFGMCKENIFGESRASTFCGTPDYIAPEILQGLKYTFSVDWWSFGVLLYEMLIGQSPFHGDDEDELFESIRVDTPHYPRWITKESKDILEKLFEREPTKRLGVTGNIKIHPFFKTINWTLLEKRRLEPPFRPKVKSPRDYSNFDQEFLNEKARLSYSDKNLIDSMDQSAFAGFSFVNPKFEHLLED
Protocol: (§1) The PKC kinase assay was carried out by co-incubating 1 µCi [γ-^32P]ATP, 20 µM ATP, 50 ng of purified PKCα or PKCδ and 5 µg of myelin basic protein 4–14, 0.25 mg/mL bovine serum albumin, 0.1 mg/mL phosphatidylcholine/phosphatidylserine (80/20%) (1 µM), 1 µM phorbol dibutyrate in 50 µL of kinase buffer containing 50 mM Tris-HCl, pH 7.5, 4 mM MgCl2 and 10 mM β-mercaptoethanol. For the CAMK assay, 50 ng of CAMKIIα and 2 µg syntide-2 substrate in 50 µL kinase buffer were incubated with 0.1 mM MgCl2, 1 µCi of [γ-^32P] ATP, 70 µM ATP. 0.5 mM CaCl2 and 30 ng/µL calmodulin were preincubated for 15 min on ice and then added in the kinase reaction. The reactions were incubated at 30°C for 10 min and 25 µL of the reaction was spotted on Whatman P81 filter paper. The filter paper was washed 3 times in 0.5% phosphoric acid, air dried and counted using Beckman LS6500 multipurpose scintillation counter.

[4] = target: T4, PKCα (Homo sapiens, UniProt P17252); assay: In vitro radiometric PKC kinase assay
T4 construct: purchased SignalChem (Richmond, BC, Canada)
Protocol: as §1

[5] = target: T2, PKD1; assay: In vitro radiometric PKD1 screening assay at 1 µM
Protocol: Phosphorylation of HDAC5 was detected in a kinase reaction having 1 µCi [γ-^32P] […] The reaction was incubated at 30°C for 10 minutes and 25 µL of the reaction was spotted on Whatman P81 filter paper. The filter paper was washed 3 times in 0.5% phosphoric acid, air dried and counted using Beckman LS6500 multipurpose scintillation counter. Percent PKD1 inhibition was graphed using GraphPad Prism software 5.0.

IC50 ([1]; mean ± SEM, read-out: IC50 PKD3) [nM]	IC50 ([1]; value in the figure, representative graph, read-out: PKD3 IC50) [nM]	inhibition of PKCδ ([3]; 10 µM) [%]	inhibition of PKCα ([4]; 10 µM) [%]	% PKD1 Inhibition ([5]; 1 µM, targeted kinase inhibitor library screen, relative to DMSO) [%]	Compound	IC50 [1] [nM]	IC50 ([1]; PKD3 IC50, value printed in the figure, representative graph) [nM]	mode of PKD1 inhibition with respect to ATP [2]	inhibition of PKCδ, in words ([3]; 0.1, 1 and 10 µM)	inhibition of PKCα, in words ([4]; 0.1, 1 and 10 µM)	inhibition at 1 µM ([5]; read-out: % PKD1 Inhibition) [%]	inhibition at 1 µM ([5]; read-out: inhibition of PKD1 activity) [%]
–	–	–	–	–	CC(C)(C)n1nc(-c2cccc3ccccc23)c2c(N)ncnc21 [Compound 1-NA-PP1, 1-(t-Butyl)-3-(naphthalen-1-yl)-1H-pyrazolo[3,4-d]pyrimidin-4-amine]	109	104	ATP-competitive inhibitors	No significant inhibitory activities; also recorded: did not significantly inhibit	No significant inhibitory activities; also recorded: did not significantly inhibit	77	80
99.7	97	> 50	> 50	67	O=C(c1ccc(Nc2nccc(-c3cc4ccccc4s3)n2)cc1)N1CCC(N2CCCC2)CC1 [IKK-16, reference compound]	–	–	ATP-competitive inhibitors	–	–	–	–
